Test system: mouse mammary carcinoma (4T1) cells
Assay: not given
Format: in vivo
Conditions: 100 mg/kg b.w. i.p., alternate days for two weeks
Experimental: In Vivo Anti-Tumor and Anti-Metastatic Efficacy Studies. To evaluate the antitumor and antimetastatic effect of 5 in vivo, healthy female Balb/c mice (b.w. 18-23 g) were taken. The experimental protocols were approved by the Institutional Animal Ethics Committee, CPCSEA, of Indian Institute of Integrative Medicine, Jammu. The animals were maintained at 22° C. with a 12 h light-dark cycle and free access to feed and water inside the institutional animal house. Proper care was taken to maintain them in a healthy condition and to avoid any risk of possible pathogenic contaminations. For subcutaneous implantation, the mice were randomized into two groups of 5 mice per group and 1.5 million mouse mammary carcinoma (4T1) cells in serum free RPMI media were injected subcutaneously into the mammary fat pad of each mouse. Either 1 week after the tumor cell implantation or when the tumor volume reached ˜150 mm^3, mice were injected intraperitoneally with either normal saline (NS) or parent compound 1 (100 mg/kg, b.w.) or 5 (30 mg/kg, b.w.) in each alternate days for two weeks. Tumor size was recorded on each alternate days post-cell injection and body weights were recorded once per week. Mice were sacrificed on the 15th day of treatment initiation and tumors were incised for its measurement. Metastatic lung nodules were counted using a dissecting microscope. Lungs were then minced into fine pieces, suspended in medium containing collagenase and kept in 37° C. incubator with vigorous shaking for 2 h. The suspension was then filtered with the help of 70 μm cell strainer (BD, USA) to get the single cell suspension. Then, the suspension was serially diluted for 3-4 times in selection medium containing 6-thioguanine, for the selection of 4T1 cells. Each dilution containing the lung cell suspension was then plated into individual petridishes and incubated at 37° C. and 5% CO2 for the growing of 4T1 cell colonies. After 15 days of incubation, cells were washed with PBS, fixed with methanol and stained with 0.2% crystal violet solution for 1 h. Images of the 4T1 colonies were observed, counted and photographed under an inverted microscope at 20× magnification.

Row | SMILES | decrease in metastatic lung nodules
1 | O=c1cc(CO)occ1O [Compound 1, 5-Hydroxy-2-(hydroxymethyl)-4H-pyran-4-one, reference compound] | 16.7%

Same assay, conditions: 100 mg/kg b.w. i.p., alternate days for two weeks, vs normal saline

Row | SMILES | inhibition in tumor growth
2 | O=c1cc(CO)occ1O [Compound 1, 5-Hydroxy-2-(hydroxymethyl)-4H-pyran-4-one, reference compound] | 23%

Test system: MCF7 cells
Assay: Cell viability (MTT) assay
Format: cell-based
Conditions: Homo sapiens, MCF7, 48 h, 44 h + 4 h, mean ± SD of three experiments, read-out: IC50 values MCF7
Experimental: (§1) Cell Culture and Reagents. The cell lines used in this study were procured from American Type Culture Collection (ATCC), Manassas, USA. MCF7, T47D and fR2 cells were cultured in RPMI-1640 medium, whereas the MDA-MB-231 cells were grown in Leibovitz's (L-15) medium supplemented with 10% fetal bovine serum (Gibco) and 1% penicillin/streptomycin (Sigma) in a humidified CO2 incubator (New Brunswick Galaxy 170 R) with 5% CO2. Reagents such as phenylmethylsulfonyl fluoride (PMSF), dithiothreitol (DTT), DMSO, crystal violet, and Bradford's reagent were purchased from Sigma-Aldrich. Protease inhibitor cocktail was procured from Roche. The antibodies for human GRP78, Par-4, MMP-2, MMP-9, NF-kB, E-cadherin and TIMP-1 were procured from Santa-Cruz Biotechnology. The β-actin antibody and the secondary antibodies such as anti-rabbit IgG and anti-mouse IgG were procured from Sigma-Aldrich.
(§2) Cell Viability Assay. The cell viability was determined by standard MTT assay method. Briefly, MDA-MB-231, MCF7, T47D and fR2 cells were seeded in 96 well tissue culture plates (Nunc) at a density of 3×10^3 cells per well and treated with varying concentrations of the test compounds in triplicates. DMSO was taken as a vehicle and the final concentration of the DMSO was maintained at 0.2% in the culture medium. Doxorubicin was employed as a positive control. After 44 h of incubation, MTT dye solution was added into the medium and cells were incubated for another 4 h at 37° C. in 5% CO2. The amount of coloured formazan derivatives formed was measured by taking optical density (OD) using a microplate reader (TECAN, Infinite M200 Pro) at 570 nm and the percentage cell viability was calculated. The IC50 values were calculated using GraphPad Prism software (Version 5.0). Table 2. Cytotoxicity (IC50) of all synthesized compounds of invention against panel of human breast cancer cell lines (MDA-MB-231, MCF7, T47D) and normal breast epithelial (fR2) cells.

Row | SMILES | IC50
3 | O=c1cc(CO)occ1O [Compound 1, 5-Hydroxy-2-(hydroxymethyl)-4H-pyran-4-one, reference compound] | 94.5 ± 2.68 µM
4 | CCCC(c1oc(CO)cc(=O)c1O)c1c[nH]c2ccccc12 (stereo not shown) [Compound 2, 2-(1-(1H-indol-3-yl)butyl)-3-hydroxy-6-(hydroxymethyl)-4H-pyran-4-one] | 45.2 ± 0.348 µM
5 | CCCCCC(c1oc(CO)cc(=O)c1O)c1c[nH]c2ccccc12 (stereo not shown) [Compound 3, 2-{1-(1H-indol-3-yl)hexyll}-3-hydroxy-6-(hydroxymethyl)-4H-pyran-4-one] | > 100 µM
6 | CCCCCCC(c1oc(CO)cc(=O)c1O)c1c[nH]c2ccccc12 (stereo not shown) [Compound 4, 2-(1-(1H-indol-3-yl)heptyl)-3-hydroxy-6-(hydroxymethyl)-4H-pyran-4-one] | 3.93 ± 0.288 µM
7 | CCCCCCCCCC(c1oc(CO)cc(=O)c1O)c1c[nH]c2ccccc12 (stereo not shown) [Compound 6] | > 100 µM
8 | CCCCCCCCCCC(c1oc(CO)cc(=O)c1O)c1c[nH]c2ccccc12 (stereo not shown) [Compound 7, 2-{1-(1H-indol-3-yl)undecyl}-3-hydroxy-6-(hydroxymethyl)-4H-pyran-4-one] | > 100 µM
9 | CCCCCCCCCCCC(c1oc(CO)cc(=O)c1O)c1c[nH]c2ccccc12 (stereo not shown) [Compound 8, 2-{1-(1H-indol-3-yl)dodecyl}-3-hydroxy-6-(hydroxymethyl)-4H-pyran-4-one] | > 100 µM
10 | CCCCCCCCCCCCCCCC(c1oc(CO)cc(=O)c1O)c1c[nH]c2ccccc12 (stereo not shown) [Compound 9, 2-{1-(1H-indol-3-yl)hexadecyl}-3-hydroxy-6-(hydroxymethyl)-4H-pyran-4-one] | > 100 µM
11 | CCCCCCCCCCCCCCCCCC(c1oc(CO)cc(=O)c1O)c1c[nH]c2ccccc12 (stereo not shown) [Compound 10, 2-{1-(1H-indol-3-yl)octadecyl}-3-hydroxy-6-(hydroxymethyl)-4H-pyran-4-one] | > 100 µM
12 | COc1cccc2c1C(=O)c1c(O)c3c(c(O)c1C2=O)C[C@@](O)(C(=O)CO)C[C@@H]3O[C@H]1C[C@H](N)[C@H](O)[C@H](C)O1 [DOXO, doxorubicin, reference compound] | 0.085 ± 0.125 µM

Test system: MDA-MB-231 cells
Assay: Cell viability (MTT) assay
Format: cell-based
Conditions: Homo sapiens, MDA-MB-231, 48 h, 44 h + 4 h, mean ± SD of three experiments, read-out: IC50 values MDA-MB-231
Experimental: as §1, §2

Row | SMILES | IC50
13 | O=c1cc(CO)occ1O [Compound 1, 5-Hydroxy-2-(hydroxymethyl)-4H-pyran-4-one, reference compound] | 87.2 ± 1.52 µM
14 | CCCC(c1oc(CO)cc(=O)c1O)c1c[nH]c2ccccc12 (stereo not shown) [Compound 2, 2-(1-(1H-indol-3-yl)butyl)-3-hydroxy-6-(hydroxymethyl)-4H-pyran-4-one] | 43.25 ± 0.416 µM
15 | CCCCCC(c1oc(CO)cc(=O)c1O)c1c[nH]c2ccccc12 (stereo not shown) [Compound 3, 2-{1-(1H-indol-3-yl)hexyll}-3-hydroxy-6-(hydroxymethyl)-4H-pyran-4-one] | 40.6 ± 0.621 µM
16 | CCCCCCC(c1oc(CO)cc(=O)c1O)c1c[nH]c2ccccc12 (stereo not shown) [Compound 4, 2-(1-(1H-indol-3-yl)heptyl)-3-hydroxy-6-(hydroxymethyl)-4H-pyran-4-one] | 3.84 ± 0.055 µM
17 | CCCCCCCCCC(c1oc(CO)cc(=O)c1O)c1c[nH]c2ccccc12 (stereo not shown) [Compound 6] | 40.6 ± 0.621 µM
18 | CCCCCCCCCCC(c1oc(CO)cc(=O)c1O)c1c[nH]c2ccccc12 (stereo not shown) [Compound 7, 2-{1-(1H-indol-3-yl)undecyl}-3-hydroxy-6-(hydroxymethyl)-4H-pyran-4-one] | 49.5 ± 0.448 µM
19 | CCCCCCCCCCCC(c1oc(CO)cc(=O)c1O)c1c[nH]c2ccccc12 (stereo not shown) [Compound 8, 2-{1-(1H-indol-3-yl)dodecyl}-3-hydroxy-6-(hydroxymethyl)-4H-pyran-4-one] | 45.2 ± 0.535 µM
20 | CCCCCCCCCCCCCCCC(c1oc(CO)cc(=O)c1O)c1c[nH]c2ccccc12 (stereo not shown) [Compound 9, 2-{1-(1H-indol-3-yl)hexadecyl}-3-hydroxy-6-(hydroxymethyl)-4H-pyran-4-one] | 45.7 ± 0.195 µM
21 | CCCCCCCCCCCCCCCCCC(c1oc(CO)cc(=O)c1O)c1c[nH]c2ccccc12 (stereo not shown) [Compound 10, 2-{1-(1H-indol-3-yl)octadecyl}-3-hydroxy-6-(hydroxymethyl)-4H-pyran-4-one] | 48.5 ± 0.341 µM
22 | COc1cccc2c1C(=O)c1c(O)c3c(c(O)c1C2=O)C[C@@](O)(C(=O)CO)C[C@@H]3O[C@H]1C[C@H](N)[C@H](O)[C@H](C)O1 [DOXO, doxorubicin, reference compound] | 0.22 ± 0.185 µM

Test system: T47D cells
Assay: Cell viability (MTT) assay
Format: cell-based
Conditions: Homo sapiens, 48 h, 44 h + 4 h, mean ± SD of three experiments
Experimental: as §1, §2

Row | SMILES | IC50
23 | O=c1cc(CO)occ1O [Compound 1, 5-Hydroxy-2-(hydroxymethyl)-4H-pyran-4-one, reference compound] | > 100 µM
24 | CCCC(c1oc(CO)cc(=O)c1O)c1c[nH]c2ccccc12 (stereo not shown) [Compound 2, 2-(1-(1H-indol-3-yl)butyl)-3-hydroxy-6-(hydroxymethyl)-4H-pyran-4-one] | 43 ± 0.144 µM
25 | CCCCCC(c1oc(CO)cc(=O)c1O)c1c[nH]c2ccccc12 (stereo not shown) [Compound 3, 2-{1-(1H-indol-3-yl)hexyll}-3-hydroxy-6-(hydroxymethyl)-4H-pyran-4-one] | 43.5 ± 0.203 µM
26 | CCCCCCC(c1oc(CO)cc(=O)c1O)c1c[nH]c2ccccc12 (stereo not shown) [Compound 4, 2-(1-(1H-indol-3-yl)heptyl)-3-hydroxy-6-(hydroxymethyl)-4H-pyran-4-one] | 4.3 ± 0.443 µM
27 | CCCCCCCCCC(c1oc(CO)cc(=O)c1O)c1c[nH]c2ccccc12 (stereo not shown) [Compound 6] | > 100 µM
28 | CCCCCCCCCCC(c1oc(CO)cc(=O)c1O)c1c[nH]c2ccccc12 (stereo not shown) [Compound 7, 2-{1-(1H-indol-3-yl)undecyl}-3-hydroxy-6-(hydroxymethyl)-4H-pyran-4-one] | > 100 µM
29 | CCCCCCCCCCCC(c1oc(CO)cc(=O)c1O)c1c[nH]c2ccccc12 (stereo not shown) [Compound 8, 2-{1-(1H-indol-3-yl)dodecyl}-3-hydroxy-6-(hydroxymethyl)-4H-pyran-4-one] | > 100 µM
30 | CCCCCCCCCCCCCCCC(c1oc(CO)cc(=O)c1O)c1c[nH]c2ccccc12 (stereo not shown) [Compound 9, 2-{1-(1H-indol-3-yl)hexadecyl}-3-hydroxy-6-(hydroxymethyl)-4H-pyran-4-one] | > 100 µM
31 | CCCCCCCCCCCCCCCCCC(c1oc(CO)cc(=O)c1O)c1c[nH]c2ccccc12 (stereo not shown) [Compound 10, 2-{1-(1H-indol-3-yl)octadecyl}-3-hydroxy-6-(hydroxymethyl)-4H-pyran-4-one] | > 100 µM
32 | COc1cccc2c1C(=O)c1c(O)c3c(c(O)c1C2=O)C[C@@](O)(C(=O)CO)C[C@@H]3O[C@H]1C[C@H](N)[C@H](O)[C@H](C)O1 [DOXO, doxorubicin, reference compound] | 0.081 ± 0.211 µM

Test system: not given
Assay: not given
Conditions: not given

Row | SMILES | melting point
33 | CCCC(c1oc(CO)cc(=O)c1O)c1c[nH]c2ccccc12 (stereo not shown) [Compound 2, 2-(1-(1H-indol-3-yl)butyl)-3-hydroxy-6-(hydroxymethyl)-4H-pyran-4-one] | 130 to 140 °C
34 | CCCCCC(c1oc(CO)cc(=O)c1O)c1c[nH]c2ccccc12 (stereo not shown) [Compound 3, 2-{1-(1H-indol-3-yl)hexyll}-3-hydroxy-6-(hydroxymethyl)-4H-pyran-4-one] | 120 to 130 °C
35 | CCCCCCC(c1oc(CO)cc(=O)c1O)c1c[nH]c2ccccc12 (stereo not shown) [Compound 4, 2-(1-(1H-indol-3-yl)heptyl)-3-hydroxy-6-(hydroxymethyl)-4H-pyran-4-one] | 115 to 125 °C
36 | CCCCCCCCCC(c1oc(CO)cc(=O)c1O)c1c[nH]c2ccccc12 (stereo not shown) [Compound 6] | 110 to 120 °C
37 | CCCCCCCCCCC(c1oc(CO)cc(=O)c1O)c1c[nH]c2ccccc12 (stereo not shown) [Compound 7, 2-{1-(1H-indol-3-yl)undecyl}-3-hydroxy-6-(hydroxymethyl)-4H-pyran-4-one] | 110 to 120 °C
38 | CCCCCCCCCCCC(c1oc(CO)cc(=O)c1O)c1c[nH]c2ccccc12 (stereo not shown) [Compound 8, 2-{1-(1H-indol-3-yl)dodecyl}-3-hydroxy-6-(hydroxymethyl)-4H-pyran-4-one] | 105 to 115 °C
39 | CCCCCCCCCCCCCCCC(c1oc(CO)cc(=O)c1O)c1c[nH]c2ccccc12 (stereo not shown) [Compound 9, 2-{1-(1H-indol-3-yl)hexadecyl}-3-hydroxy-6-(hydroxymethyl)-4H-pyran-4-one] | 95 to 105 °C
40 | CCCCCCCCCCCCCCCCCC(c1oc(CO)cc(=O)c1O)c1c[nH]c2ccccc12 (stereo not shown) [Compound 10, 2-{1-(1H-indol-3-yl)octadecyl}-3-hydroxy-6-(hydroxymethyl)-4H-pyran-4-one] | 90 to 100 °C

Source: patent publication US11180486B2, “Indolylkojyl methane analogues, process of preparation thereof and use as inhibitor of cancer cells invasion and metastasis” (Council of Scientific & Industrial Research, priority 2017, dated 2021)
